In US12268632B2, “Self-retaining implantable drug delivery device” (GoldenBiotech, LLC, priority 2018, dated 2025):

Experiments:
Assay type in all cases: physicochemical
[1] = Higuchi equation analysis of drug release (cumulative release vs square root of time); conditions: coated drug-loaded silicone polymer matrices
Description: In order to ascertain whether the mechanism of drug release was based on diffusion, data obtained from various coated silicone polymer matrices were analyzed using the Higuchi equation. This analysis determines the degree of proportionality between the cumulative amount of drug released and the square root of time (SQRT). […] As exemplified FIG. 10, data is plotted as the square root of time taken on the x-axis and the cumulative percentage of drug release on the y-axis.

[2] = Chemical stability of prostaglandin analogues in PBS, RPHPLC; conditions: PBS at pH 4, 7 and 10 and at 4° C., 33° C. and 50° C.
Description: The chemical stability of prostaglandin analogues was also examined. In these experiments, a prostaglandin analogue was incubated in phospho-buffered saline (PBS) at pH 4, 7 and 10 and at 4° C., 33° C. and 50° C. representing long term storage, eye temperature and accelerate temperature conditions respectively. Analyses were performed by RPHPLC as described in Example 2, noting any hydrolysis products formed. […] This stability is most likely due to the amide linkage in bimatoprost which is much more hydrolytically stable than the ester linkage in latanoprost and travoprost.

[3] = Physical appearance and durometer mechanical properties of drug-loaded silicone polymer matrix test samples
Description: To test the loading capacity of a silicone elastomer polymer matrix for a prostaglandin analogue, polymer matrix with different amounts and types of a prostaglandin analogue were made and the physical and mechanical properties of the resulting polymerized drug-loaded matrix were characterized (Tables 1-3). These polymer matrix test samples were made by mixing together a prostaglandin analogue, a liquid cyclic vinyl siloxane elastomer, a crosslinker, and a catalyst using a high-speed mixer and then heated the capped container at 70° C. for 24 hours to cure the mixture. A filler, such as a fumed silica, was also used to provide sufficient mechanical strength to the polymerized matrix. In addition, an inhibitor was used to slow the crosslinking reaction to a workable rate. The resulting thin-disc-shaped drug-loaded polymer matrix was allowed to cool to room temperature and then placed in 4° C. for 24 hours to increase stiffness of the material. The physical appearance of each drug-loaded polymer matrix test sample was examined visually and its mechanical properties analyzed using a durometer.

[4] = Release from post-loaded travoprost section of the implantable device; conditions: post loaded 3 mm section, uncoated, at 38 days
Description: A central section of a self-retaining implantable drug delivery device disclosed herein was loaded with travoprost by cutting a 3 mm section of the device and then placed into 0.200 ml of hexanes for 3 hours. Following this period, the self-retaining implantable drug delivery device was placed immediately into 0.050 mL of a travoprost stock solution 25 mg/mL in ethanol and allowed to stand overnight. The following day, this section was washed sequentially by dipping into a water bath, followed by a 10% acetonitrile bath. It was dried at 80 C and set to release the following day. The section was allowed to release over a period of 38 days. The loading was determined to be approximately 13 mcg. […] This release profile is predicted by the Higuchi mechanism. This type of loading procedure we term post loading. The loaded section is coated with a poly(p-xylylene) polymer and two tiny holes are placed completely through the section. The section is then molded together with the two flanking sections of the stent to form the final product. The release from this modified stent follows a near zero order release in vitro and in vivo in preclinical animal models and clinical studies.

[5] = Korsmeyer-Peppas analysis of drug release (log percent released vs log time)
Description: To confirm the results obtained based on the Higuchi equation analysis, the data above was also analyzed using the Korsmeyer-Peppas plot, which evaluates the mechanism of drug release by plotting the log of percent drug released over the log time in hours. If n equals 0.45, then Fickian diffusion is indicated for a cylinder (0.42 for cylinder of low aspect ratio). […] As exemplified FIG. 11, data is plotted as the log of cumulative percent drug released on the y-axis and the log time in hours on the x-axis.

[6] = In vitro drug release from drug-loaded silicone polymer matrix in PBS pH 7.4 at 37° C., RPHPLC; conditions: uncoated silicone polymer matrix loaded with 10% latanoprost, FIG. 5
Description: To test the controlled release properties of the disclosed drug-loaded silicone polymer matrices, the effects of a coating were examined. In these experiments, test samples were made as described in Example 1 to produce thin-disc-shaped drug-loaded polymer matrix. From this material, test samples were prepared by 1) cutting out rectangular polygons of about 3 mm length, about 1 mm width and about 1 mm height were cut from polymerized drug-loaded material; or 2) cutting out cylindrical plugs of about 3 mm length and having a diameter of about 0.5 mm to about 1 mm. The weight of the test samples was in the range of about 0.1 mg to about 4 mg.
These cut test samples were then coated using one of three procedures. […]
To examine the drug release properties of a test sample, each sample was placed in 2 mL Eppendorf tube containing 1.5 mL of Phosphate Buffered Saline, pH 7.4 (PBS). […] An aliquot of the removed PBS was then analyzed by reversed phase HPLC (RPHPLC) to determine the amount of drug released from the test sample during the incubation period. […] Peak detection and quantitation were determined by establishing a calibration curve using known amounts of each drug tested and the amount of drug present in the test sample aliquot interpolated from this calibration curve using ChemStation software.

[7] = Drug Loading 2.5%, coated drug-loaded silicone polymer matrices
[8] = Drug Loading 5%, coated drug-loaded silicone polymer matrices
[9] = Drug Loading 10%, coated drug-loaded silicone polymer matrices
[10] = Drug Loading 15%, coated drug-loaded silicone polymer matrices
[11] = Drug Loading 20%, coated drug-loaded silicone polymer matrices

Row | SMILES | Average Linear Regression r^2 Value (Higuchi) ([1]; Drug Loading 2.5%) | Average Linear Regression r^2 Value (Higuchi) ([1]; Drug Loading 5%) | Average Linear Regression r^2 Value (Higuchi) ([1]; Drug Loading 10%) | chemical stability (hydrolysis) [2] | amount that would not produce a satisfactory drug-loaded silicone polymer matrix [3] | physical appearance of silicone polymer matrix ([3]; 15% and 20% test samples) | amount released [4] | Average n Values (Korsmeyer-Peppas) [5, 7] | Average n Values (Korsmeyer-Peppas) [5, 8] | Average n Values (Korsmeyer-Peppas) [5, 9] | Average n Values (Korsmeyer-Peppas) ([5]; Mean over drug loadings) | Average Linear Regression r^2 Value (Higuchi) ([1]; Drug Loading 1%) | Average Linear Regression r^2 Value (Higuchi) ([1]; Drug Loading 15%) | Average Linear Regression r^2 Value (Higuchi) ([1]; Drug Loading 20%) | physical appearance of silicone polymer matrix ([3]; 20% test sample) | Average n Values (Korsmeyer-Peppas) ([5]; Drug Loading 1%, coated drug-loaded silicone polymer matrices) | Average n Values (Korsmeyer-Peppas) [5, 10] | Average n Values (Korsmeyer-Peppas) [5, 11] | release profile [6] | physical appearance of silicone polymer matrix ([3]; 25% test sample)
1 | CC(C)OC(=O)CCC/C=C\C[C@@H]1[C@@H](/C=C/[C@@H](O)COc2cccc(C(F)(F)F)c2)[C@H](O)C[C@@H]1O [Travoprost, travoprost] | 0.976 | 0.972 | 0.941 | had the requisite stability | ≥ 15% | exhibited more elasticity but had surfaces with tacky attributes and a consistency that was not fully homogeneous | 99% | 0.543± | 0.507± | 0.453± | 0.50 ± 0.09 | – | – | – | – | – | – | – | – | –
2 | CCNC(=O)CCC/C=C\C[C@@H]1[C@@H](/C=C/[C@@H](O)CCc2ccccc2)[C@H](O)C[C@@H]1O [Bimatoprost, bimatoprost] | 0.995 | 0.997 | 0.988 | the most stable | ≥ 20% | – | – | 0.372± | 0.411± | 0.377± | 0.37 ± 0.08 | 0.992 | 0.994 | 0.972 | brittle and contained clumps of unincorporated components from the mixture | 0.326± | 0.380± | 0.601± | – | –
3 | CC(C)OC(=O)CCC/C=C\C[C@@H]1[C@@H](CC[C@@H](O)CCc2ccccc2)[C@H](O)C[C@@H]1O [Latanoprost, latanoprost] | – | 0.964 | 0.983 | travoprost was significantly more stable than latanoprost | ≥ 25% | – | – | – | 0.504± | 0.501± | 0.57 ± 0.16 | – | 0.990 | 0.990 | – | – | 0.712± | 1.200± | rapid release of the drug over the first five days, which then tapers off and by day 12 shows no further significant release | exhibited more elasticity but had a surface with tacky attributes and a consistency that was not fully homogeneous
